Measured values published in ChEMBL document CHEMBL5338739, “Discovery of Dual Lysine Methyltransferase G9a and EZH2 Inhibitors with In Vivo Efficacy against Malignant Rhabdoid Tumor” (J Med Chem, 2023).
Calls of active or inactive are those of the source. No cut-off for these calls is given here.

What was measured:
[1] = Half life in Sprague-Dawley rat at 10 mg/kg, iv administered for 12 hrs by HPLC analysis; format: ADME, organism-based; settings: in vivo
RD [2] = assay: Downregulation of H3K79me3 expression in human RD cells at 5 uM incubated for 6 days by immunoblotting analysis; format: functional, cell-based; settings: time 6.0 day
SW982 = assay: Cytotoxicity against human SW982 cells assessed as reduction in cell viability incubated for 72 hrs by MTT assay; format: functional
[3] = Toxicity in BALB/c nude mouse xenografted with human RD cells assessed as effect on kidney viscera index at 10 to 20 mg/kg, ip administered for 5 consecutive days followed by 2 rest days for 3 weeks; format: organism-based; settings: in vivo, 504 h, dose 10-20 mg/kg
[4] = Tmax in Sprague-Dawley rat at 10 mg/kg, iv administered for 12 hrs by HPLC analysis; format: ADME, organism-based; settings: in vivo
[5] = AUC (0 to infinity) in Sprague-Dawley rat at 10 mg/kg, iv administered for 12 hrs by HPLC analysis; format: ADME, organism-based; set-up: time 12 hrs, dose 10 mg/kg, route iv; settings: in vivo
[6] = target: T1, Histone-lysine N-methyltransferase EHMT2 (Homo sapiens, UniProt Q96KQ7); assay: Inhibition of human recombinant EHMT2 G9a using SAM as substrate incubated for 1 hr by microplate luminescence based HMT assay
T1 sequence (Q96KQ7 whole entry): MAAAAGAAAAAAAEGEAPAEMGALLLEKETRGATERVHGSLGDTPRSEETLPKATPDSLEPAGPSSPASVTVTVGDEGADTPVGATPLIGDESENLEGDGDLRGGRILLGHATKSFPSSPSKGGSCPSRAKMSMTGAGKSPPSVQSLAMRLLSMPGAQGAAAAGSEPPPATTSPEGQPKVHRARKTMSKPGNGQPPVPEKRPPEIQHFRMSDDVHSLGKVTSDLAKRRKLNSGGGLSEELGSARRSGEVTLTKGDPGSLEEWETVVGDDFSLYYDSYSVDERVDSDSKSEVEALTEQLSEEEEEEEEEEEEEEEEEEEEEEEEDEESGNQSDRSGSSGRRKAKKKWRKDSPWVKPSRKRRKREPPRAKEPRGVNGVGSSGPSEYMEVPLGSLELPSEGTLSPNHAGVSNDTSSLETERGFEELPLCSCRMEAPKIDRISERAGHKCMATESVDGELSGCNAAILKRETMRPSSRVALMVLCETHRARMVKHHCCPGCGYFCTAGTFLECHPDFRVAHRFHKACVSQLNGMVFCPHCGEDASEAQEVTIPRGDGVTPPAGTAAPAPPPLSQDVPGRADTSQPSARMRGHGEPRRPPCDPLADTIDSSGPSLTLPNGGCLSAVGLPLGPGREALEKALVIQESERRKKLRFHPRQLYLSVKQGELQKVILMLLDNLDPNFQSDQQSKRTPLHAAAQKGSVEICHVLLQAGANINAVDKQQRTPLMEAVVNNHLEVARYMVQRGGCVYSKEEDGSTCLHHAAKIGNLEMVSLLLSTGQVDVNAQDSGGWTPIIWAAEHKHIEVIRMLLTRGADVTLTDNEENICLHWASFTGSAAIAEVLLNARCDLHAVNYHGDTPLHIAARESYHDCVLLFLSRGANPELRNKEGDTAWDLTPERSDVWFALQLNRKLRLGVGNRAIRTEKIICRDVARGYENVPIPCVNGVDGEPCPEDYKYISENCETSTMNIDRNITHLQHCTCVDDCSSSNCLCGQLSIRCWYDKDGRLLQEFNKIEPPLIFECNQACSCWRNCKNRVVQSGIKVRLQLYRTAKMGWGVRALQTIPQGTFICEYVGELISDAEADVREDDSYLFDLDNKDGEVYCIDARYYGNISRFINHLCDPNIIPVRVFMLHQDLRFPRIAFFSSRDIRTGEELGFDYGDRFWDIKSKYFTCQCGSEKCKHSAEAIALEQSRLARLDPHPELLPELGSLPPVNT

RD [7] = assay: Downregulation of H3K79me2 expression in human RD cells at 5 uM incubated for 6 days by immunoblotting analysis; format: functional, cell-based; settings: time 6.0 day
[8] = Toxicity in BALB/c nude mouse xenografted with human RD cells assessed as effect on heart viscera index at 10 to 20 mg/kg, ip administered for 5 consecutive days followed by 2 rest days for 3 weeks; format: organism-based; settings: in vivo, 504 h, dose 10-20 mg/kg
[9] = target: T2, Histone-lysine N-methyltransferase EZH2 (Homo sapiens, UniProt Q15910); assay: Inhibition of human EZH2 using SAM as substrate at 10 uM by time-resolved fluorescence assay relative to control
Target sequence in this assay (Q15910 whole entry, looked up): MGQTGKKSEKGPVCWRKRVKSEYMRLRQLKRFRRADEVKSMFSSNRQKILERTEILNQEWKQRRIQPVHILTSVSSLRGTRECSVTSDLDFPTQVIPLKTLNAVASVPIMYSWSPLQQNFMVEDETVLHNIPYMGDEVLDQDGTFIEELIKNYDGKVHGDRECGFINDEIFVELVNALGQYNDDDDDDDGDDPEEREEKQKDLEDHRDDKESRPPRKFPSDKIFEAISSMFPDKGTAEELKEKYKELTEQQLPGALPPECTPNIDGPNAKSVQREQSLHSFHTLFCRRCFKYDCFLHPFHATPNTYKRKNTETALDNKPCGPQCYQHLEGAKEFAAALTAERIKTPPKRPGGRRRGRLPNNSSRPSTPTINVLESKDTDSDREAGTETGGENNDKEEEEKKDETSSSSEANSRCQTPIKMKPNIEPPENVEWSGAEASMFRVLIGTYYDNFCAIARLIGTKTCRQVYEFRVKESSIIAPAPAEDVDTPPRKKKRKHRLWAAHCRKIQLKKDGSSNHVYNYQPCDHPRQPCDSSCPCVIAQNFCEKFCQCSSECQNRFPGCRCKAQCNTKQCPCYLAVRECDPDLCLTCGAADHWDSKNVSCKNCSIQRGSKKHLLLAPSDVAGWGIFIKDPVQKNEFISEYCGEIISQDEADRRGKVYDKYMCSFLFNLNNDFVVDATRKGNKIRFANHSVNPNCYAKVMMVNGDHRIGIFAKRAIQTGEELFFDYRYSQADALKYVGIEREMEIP

RD [10] = assay: Downregulation of H3K27me3 expression in human RD cells at 5 uM incubated for 6 days by Western blotting analysis; format: functional, cell-based; settings: time 6.0 day
[11] = Clearance in Sprague-Dawley rat at 30 mg/kg, po administered for 24 hrs by HPLC analysis; format: ADME, organism-based; settings: in vivo
[12] = target: T2, Histone-lysine N-methyltransferase EZH2; assay: Binding affinity to EZH2 in human RD cells assessed as increase in protein thermal stability at 5 uM incubated for 4 hrs by CETSA based Western blot analysis; format: cell-based
Target sequence in this assay (Q15910 whole entry, looked up): as above

RD [13] = assay: Downregulation of H3K36me2 expression in human RD cells at 5 uM incubated for 6 days by immunoblotting analysis; format: functional, cell-based; settings: time 6.0 day
[14] = Oral bioavailability in Sprague-Dawley rat at 30 mg/kg administered for 24 hrs by HPLC analysis; format: ADME, organism-based; settings: in vivo
[15] = target: Histone-lysine N-methyltransferase, H3 lysine-79 specific (Homo sapiens) (UniProt Q8TEK3); assay: Binding affinity to DOT1L in human RD cells assessed as increase in protein thermal stability at 5 uM incubated for 4 hrs by CETSA based Western blot analysis; format: cell-based
Chain of Histone-lysine N-methyltransferase, H3 lysine-79 specific (Homo sapiens) (Q8TEK3 whole entry, looked up): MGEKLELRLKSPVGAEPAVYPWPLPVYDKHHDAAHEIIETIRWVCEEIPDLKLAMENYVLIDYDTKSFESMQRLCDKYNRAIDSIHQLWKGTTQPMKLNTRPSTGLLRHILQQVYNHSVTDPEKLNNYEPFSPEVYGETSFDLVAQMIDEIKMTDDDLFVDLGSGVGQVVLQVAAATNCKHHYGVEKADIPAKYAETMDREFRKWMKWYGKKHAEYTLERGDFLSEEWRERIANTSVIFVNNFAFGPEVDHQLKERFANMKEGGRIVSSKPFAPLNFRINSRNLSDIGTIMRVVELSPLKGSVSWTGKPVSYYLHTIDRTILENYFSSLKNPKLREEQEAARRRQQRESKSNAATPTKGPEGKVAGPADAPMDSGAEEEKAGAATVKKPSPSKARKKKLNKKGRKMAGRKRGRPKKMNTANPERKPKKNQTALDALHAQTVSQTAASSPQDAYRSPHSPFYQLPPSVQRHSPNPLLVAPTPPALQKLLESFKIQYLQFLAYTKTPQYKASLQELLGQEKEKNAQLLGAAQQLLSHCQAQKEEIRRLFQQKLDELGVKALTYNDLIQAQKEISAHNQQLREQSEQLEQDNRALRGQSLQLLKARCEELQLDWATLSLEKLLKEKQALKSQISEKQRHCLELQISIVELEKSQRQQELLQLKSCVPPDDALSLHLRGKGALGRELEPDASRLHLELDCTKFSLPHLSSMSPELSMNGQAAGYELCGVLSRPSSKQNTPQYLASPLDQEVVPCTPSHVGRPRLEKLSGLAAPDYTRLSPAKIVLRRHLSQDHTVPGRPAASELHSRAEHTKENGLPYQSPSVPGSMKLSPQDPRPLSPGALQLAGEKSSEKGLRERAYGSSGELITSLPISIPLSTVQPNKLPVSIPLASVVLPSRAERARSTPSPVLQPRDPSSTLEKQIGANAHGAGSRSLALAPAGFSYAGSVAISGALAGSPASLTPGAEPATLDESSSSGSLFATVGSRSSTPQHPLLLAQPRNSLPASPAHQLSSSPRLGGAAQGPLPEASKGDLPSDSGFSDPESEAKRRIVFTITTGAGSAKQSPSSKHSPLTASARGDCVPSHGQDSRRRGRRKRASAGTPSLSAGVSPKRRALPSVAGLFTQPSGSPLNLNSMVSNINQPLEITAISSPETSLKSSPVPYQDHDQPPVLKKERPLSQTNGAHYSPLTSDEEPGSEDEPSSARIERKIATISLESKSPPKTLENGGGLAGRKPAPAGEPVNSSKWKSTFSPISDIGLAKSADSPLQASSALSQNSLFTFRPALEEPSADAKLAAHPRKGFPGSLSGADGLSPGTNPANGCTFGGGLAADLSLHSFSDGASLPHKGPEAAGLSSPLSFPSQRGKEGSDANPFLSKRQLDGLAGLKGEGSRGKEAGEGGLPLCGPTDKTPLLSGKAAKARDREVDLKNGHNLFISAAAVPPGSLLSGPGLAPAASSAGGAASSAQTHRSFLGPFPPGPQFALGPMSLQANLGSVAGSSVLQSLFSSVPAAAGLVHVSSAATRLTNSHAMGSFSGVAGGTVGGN

RD [16] = assay: Antitumor activity against human RD cells xenografted in BALB/c nude mouse assessed as tumor growth inhibition at 10 to 20 mg/kg, ip administered for 5 consecutive days followed by 2 rest days for 3 weeks; format: functional; settings: dose 10-20 mg/kg
[17] = target: T2, Histone-lysine N-methyltransferase EZH2; assay: Inhibition of human EZH2 using SAM as substrate incubated for 1 hr by microplate luminescence based HMT assay
Target sequence in this assay (Q15910 whole entry): as the sequence (Q15910 whole entry, looked up) above

RD [18] = assay: Downregulation of H3K4me1 expression in human RD cells at 5 uM incubated for 6 days by immunoblotting analysis; format: functional, cell-based; settings: time 6.0 day
RD [19] = assay: Antiproliferative activity against EZH2 and G9a knockdown human RD cells assessed as reduction in clone formation rate at 5 uM for 1 to 2 weeks with fresh medium replacement for every 2 to 3 days by crystal violet staining based microscopic analysis; format: functional, cell-based; settings: time 1-2 weeks
[20] = target: T3, Histone-lysine N-methyltransferase EHMT2 (Homo sapiens) (UniProt Q96KQ7); assay: Inhibition of human recombinant EHMT2 G9a using SAM as substrate at 10 uM by time-resolved fluorescence assay relative to control
T3 sequence (whole entry): T1 sequence (Q96KQ7 whole entry)

[21] = target: Histone-lysine N-methyltransferase SETDB1 (Homo sapiens) (UniProt Q15047); assay: Inhibition of SETDB1 (unknown origin) using SAM as substrate at 10 uM by time-resolved fluorescence assay relative to control

Structure (SMILES): COc1cc2c(NCc3c(C)cc(C)[nH]c3=O)nc(N3CCC(F)(F)CC3)nc2cc1OCCCN1CCCC1
- half-life [1]: 3.47 h
- Activity (RD [2]): inactive
- CC50 (SW982): 19900 nM
- Activity [3]: Non-Toxic
- Tmax [4]: 0.17 h
- AUC [5]: 2476.02 ng·h/mL
- IC50 [6]: 2.9 nM
- Activity (RD [7]): inactive
- Activity [8]: Non-Toxic
- inhibition [9]: 98.3%
- Activity (RD [10]): Active
- CL/F [11]: 59.7 mL/min/kg
- Activity [12]: Active
- Activity (RD [13]): inactive
- bioavailability [14]: 92%
- Activity [15]: inactive
- TGI (RD [16]): 86.6%
- IC50 [17]: 4.35 nM
- Activity (RD [18]): inactive
- Activity (RD [19]): inactive
- inhibition [20]: 99.1%
- inhibition [21]: 7.79%
